Patent US11639343B2, “Compounds targeting and degrading BCR-ABL protein and its antitumor application” (ShanghaiTech University, priority 2019, dated 2023)

Experiments:
BCR-ABL protein [1] = molecular target: T1, BCR-ABL protein (Homo sapiens, UniProt P00519); test: Western blot degradation of BCR-ABL in K562 cells; type: cell-based; parameters: Western blot was used to detect the expression of BCR-ABL and c-ABL protein in K562 cells; BCR (fusion partner, P11274); endogenous in cells; host or cells: K562; the other entry of the earlier key: BCR (P11274, Breakpoint cluster region protein); conditions: 16 hours, 1 nM-10 μM
T1 sequence (P00519 with tags, fused parts or gaps): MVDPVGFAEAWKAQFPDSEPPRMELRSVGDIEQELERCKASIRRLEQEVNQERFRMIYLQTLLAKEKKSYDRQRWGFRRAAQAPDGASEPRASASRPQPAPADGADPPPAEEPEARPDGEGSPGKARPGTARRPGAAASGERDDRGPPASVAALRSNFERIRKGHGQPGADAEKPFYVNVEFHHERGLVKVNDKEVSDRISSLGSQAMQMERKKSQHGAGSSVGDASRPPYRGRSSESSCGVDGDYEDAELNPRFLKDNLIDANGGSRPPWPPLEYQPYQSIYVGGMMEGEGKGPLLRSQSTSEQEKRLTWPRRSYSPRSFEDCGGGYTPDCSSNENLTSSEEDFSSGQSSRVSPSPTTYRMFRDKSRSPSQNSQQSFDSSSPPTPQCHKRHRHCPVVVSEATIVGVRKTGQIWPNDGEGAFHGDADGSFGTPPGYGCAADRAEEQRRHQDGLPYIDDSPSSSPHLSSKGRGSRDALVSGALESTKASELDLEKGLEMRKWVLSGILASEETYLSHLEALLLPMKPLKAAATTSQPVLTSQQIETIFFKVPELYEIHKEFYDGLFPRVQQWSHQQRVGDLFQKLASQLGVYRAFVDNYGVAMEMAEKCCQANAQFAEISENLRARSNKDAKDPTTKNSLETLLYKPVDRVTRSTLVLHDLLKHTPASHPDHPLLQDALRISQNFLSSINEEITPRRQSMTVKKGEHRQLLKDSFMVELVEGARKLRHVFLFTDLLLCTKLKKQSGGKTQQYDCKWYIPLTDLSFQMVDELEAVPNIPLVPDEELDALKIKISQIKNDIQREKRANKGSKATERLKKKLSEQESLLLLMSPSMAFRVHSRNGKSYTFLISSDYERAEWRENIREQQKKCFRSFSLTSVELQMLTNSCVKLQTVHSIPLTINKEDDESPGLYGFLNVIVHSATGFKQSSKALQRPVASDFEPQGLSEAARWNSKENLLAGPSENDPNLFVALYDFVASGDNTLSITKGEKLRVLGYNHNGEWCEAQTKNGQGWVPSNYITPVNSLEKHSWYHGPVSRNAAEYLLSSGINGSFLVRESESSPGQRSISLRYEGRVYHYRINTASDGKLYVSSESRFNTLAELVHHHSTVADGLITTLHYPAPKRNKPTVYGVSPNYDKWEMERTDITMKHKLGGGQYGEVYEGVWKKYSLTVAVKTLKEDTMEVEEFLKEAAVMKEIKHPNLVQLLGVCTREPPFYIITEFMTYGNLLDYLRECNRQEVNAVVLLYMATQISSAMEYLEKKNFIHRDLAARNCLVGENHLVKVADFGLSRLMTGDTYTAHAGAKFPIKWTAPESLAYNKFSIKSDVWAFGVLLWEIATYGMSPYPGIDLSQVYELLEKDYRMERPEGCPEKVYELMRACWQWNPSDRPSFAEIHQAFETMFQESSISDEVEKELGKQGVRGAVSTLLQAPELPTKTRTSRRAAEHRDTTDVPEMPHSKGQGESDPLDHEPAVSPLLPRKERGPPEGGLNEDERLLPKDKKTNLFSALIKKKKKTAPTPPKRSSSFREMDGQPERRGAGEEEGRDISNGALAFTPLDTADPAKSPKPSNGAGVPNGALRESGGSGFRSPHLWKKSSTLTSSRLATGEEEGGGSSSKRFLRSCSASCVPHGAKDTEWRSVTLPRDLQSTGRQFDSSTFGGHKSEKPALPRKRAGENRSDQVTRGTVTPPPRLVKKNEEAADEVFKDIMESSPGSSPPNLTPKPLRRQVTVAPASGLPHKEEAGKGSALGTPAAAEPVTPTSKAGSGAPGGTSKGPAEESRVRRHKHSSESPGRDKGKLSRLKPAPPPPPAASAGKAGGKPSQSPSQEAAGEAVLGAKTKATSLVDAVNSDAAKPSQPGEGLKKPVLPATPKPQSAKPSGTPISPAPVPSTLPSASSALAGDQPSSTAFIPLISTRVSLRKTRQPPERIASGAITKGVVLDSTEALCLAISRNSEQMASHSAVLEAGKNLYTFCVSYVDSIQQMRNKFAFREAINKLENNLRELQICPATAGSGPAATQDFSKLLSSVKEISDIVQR
Procedure, shortened: (§1)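 Lysates were normalized by Bradford and run on SDS-PAGE with nitrocellulose transfer. DC50 was derived from band intensities by non-linear regression.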

BCR-ABL protein [2] = molecular target: T1, BCR-ABL protein; test: Degradation of BCR-ABL protein in vivo; parameters: BCR (fusion partner, P11274); from tissue; host or cells: in vivo; the other entry of the earlier key: BCR (P11274, Breakpoint cluster region protein)
From the text: (§2) We further study whether PROTAD compound of the disclosure can induce BCR-ABL protein degradation in vivo. We still took the compound SIAIS151178 of Dasa-Lin-VHL system as the representative one.

[3] = test system: Src protein kinase, kit, PDGFR; test: Degradation of other tyrosine kinase receptors
[4] = test system: K562 cell transplantation tumor; test: BCR-ABL+ K562 cell transplanted tumor model in mice; type: in vivo
From the text: (1) Establishment of K562 Luc cells: the target fragment of luciferase was cloned into lentivirus vector Plenti-IRES-ZSGREEN, and a K562-Luc cell line stably expressing luciferase was established on K562 cells by using lentivirus infection system.
(§3) (2) BCR-ABL+K562 cell transplanted mouse model: 5*106 k562 Luc cells were inoculated into the subcutaneous of immunodeficient NOD-SCID mice. After 2 weeks, the tumor volume of mice was nearly 200 mm^3. The mice were randomly divided into 5 groups. […] At the same time, the mice were imaged in vivo to observe the tumor-bearing condition. Then stop the administration and observe the recurrence of the tumor.

K562 (BCR-ABL+) cells = test: CCK-8 proliferation inhibition, K562 cells; type: cell-based, human; conditions: Homo sapiens, K562, 48 h, CCK-8, 48 hours of drug treatment; read-out: Proliferative inhibitory activity (IC50, nM) K562 (BCR-ABL+);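 also: Ten-point threefold dilution series starting at 10 µM, absorbance at 450 nm after 2 h with CCK-8, DMSO as negative control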
c-ABL protein [5] = molecular target: T2, c-ABL protein (Homo sapiens, UniProt P00519); test: Degradation of c-ABL protein in vivo; parameters: from tissue; host or cells: in vivo
T2 sequence (P00519 whole entry): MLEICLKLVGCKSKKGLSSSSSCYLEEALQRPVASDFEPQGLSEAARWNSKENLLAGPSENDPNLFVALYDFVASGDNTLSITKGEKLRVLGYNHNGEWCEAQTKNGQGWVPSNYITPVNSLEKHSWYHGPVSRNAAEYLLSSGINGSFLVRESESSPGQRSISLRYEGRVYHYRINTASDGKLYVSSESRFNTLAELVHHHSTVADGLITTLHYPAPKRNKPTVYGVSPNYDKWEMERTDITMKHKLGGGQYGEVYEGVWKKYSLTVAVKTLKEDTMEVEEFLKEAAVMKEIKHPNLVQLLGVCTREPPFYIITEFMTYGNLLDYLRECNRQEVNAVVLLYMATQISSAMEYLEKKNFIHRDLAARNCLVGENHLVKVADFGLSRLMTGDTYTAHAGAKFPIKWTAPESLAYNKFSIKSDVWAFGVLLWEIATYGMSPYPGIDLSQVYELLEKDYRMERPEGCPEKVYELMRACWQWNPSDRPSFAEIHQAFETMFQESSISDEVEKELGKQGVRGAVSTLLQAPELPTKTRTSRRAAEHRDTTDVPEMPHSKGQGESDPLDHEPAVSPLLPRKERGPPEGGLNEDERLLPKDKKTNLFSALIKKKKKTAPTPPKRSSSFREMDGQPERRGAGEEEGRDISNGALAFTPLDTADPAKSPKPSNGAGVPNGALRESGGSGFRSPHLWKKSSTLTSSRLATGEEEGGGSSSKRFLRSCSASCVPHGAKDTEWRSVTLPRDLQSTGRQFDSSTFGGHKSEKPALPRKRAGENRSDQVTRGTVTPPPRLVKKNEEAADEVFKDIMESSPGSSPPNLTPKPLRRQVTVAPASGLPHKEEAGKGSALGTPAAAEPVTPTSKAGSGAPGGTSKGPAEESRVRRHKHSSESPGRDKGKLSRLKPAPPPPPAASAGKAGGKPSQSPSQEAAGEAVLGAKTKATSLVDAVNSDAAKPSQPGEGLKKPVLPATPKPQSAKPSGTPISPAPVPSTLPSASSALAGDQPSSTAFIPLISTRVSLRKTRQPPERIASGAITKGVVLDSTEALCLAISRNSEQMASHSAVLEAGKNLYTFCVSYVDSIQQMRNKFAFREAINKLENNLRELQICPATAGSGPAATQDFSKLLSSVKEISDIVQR
From the text: as §2

HEK293 (BCR-ABL-) cells = test: CCK-8 proliferation inhibition, HEK293 cells; conditions: Homo sapiens, HEK293, 48 h, read-out: Proliferative inhibitory activity (IC50, nM) HEK293 (BCR-ABL-);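 also: Ten-point threefold dilution series starting at 10 µM, CCK-8 absorbance at 450 nm read after 2 h reagent incubation, DMSO-treated cells as negative control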
U937 (BCR-ABL-) cells = test: CCK-8 proliferation inhibition, U937 cells; type: cell-based, human; conditions: Homo sapiens, U-937; CCK-8, 48 hours of drug treatment, highest concentration 10 μM; read-out: Proliferative inhibitory activity (IC50, nM) U937 (BCR-ABL-);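 also: Ten-point threefold dilution series, absorbance at 450 nm after 2 h with CCK-8 reagent, DMSO as negative control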
BCR-ABL signal pathway = BCR-ABL signal pathway activity in vivo
From the text: as §2

[6] = Body weight and toxicity in the K562 transplanted mouse model; type: in vivo; conditions: NOD-SCID mice, during the experiment period
From the text: as §3

[7] = test system: BCR-ABL-G250E/V299L/F317L/F317V; test: Western blot degradation of BCR-ABL drug resistance mutants in U937 cells; type: cell-based, human; conditions: U937 cells stably expressing mutants, 24 hours, 10 nM-10 μM
Protocol: (1) Establishment of stable BCR-ABL mutant: the target fragment of BCR-ABL was cloned into retroviral vector pmigrl, and then PMIGR1-BCR-ABL-G250E/E255K/V299L/F317L/F317V/T315I/T315A and other mutant forms were obtained by using Stratagene-QuikChange® Site-Directed Mutagenesis Kit. Finally, the cell lines stably expressing BCR-ABL wild type and mutant were established on U937 cells by retrovirus infection system.
(1) Cell seed: Established cells are added to the 24 well plates, with a cell density of 3×10^5/ml and a total volume of 1.5 ml; Four concentration gradients, 10 nm, 100 nm, 1 μM, and 10 μM, are respectively set for PROTAD series compounds. […] After 24 hours of drug treatment, the cells were collected in 1.5 ml ep tube, centrifuged at 3000 rpm for 3 minutes, and then added 30 μL PBS and 30 μL 2×SDS to cell precipitated, lysate Heat at 100° C. for 5 minutes, then placed on ice for 5 minutes, centrifuged at 10000 rpm for 5 minutes, and take the supernatant as the total protein extracted. The effect of SIAS151178 on the mutational BCR-ABL protein was detected by Western blotting.

c-ABL protein [8] = molecular target: T2, c-ABL protein; test: Western blot degradation of c-ABL in K562 cells; type: cell-based; parameters: Western blot was used to detect the expression of BCR-ABL and c-ABL protein in K562 cells; endogenous in cells; host or cells: K562; conditions: 16 hours, 1 nM-10 μM
Procedure, shortened: as §1

Row | DC50 (BCR-ABL protein [1]) | IC50 (K562 (BCR-ABL+) cells) | IC50 (U937 (BCR-ABL-) cells) | DC50 (c-ABL protein [8]) | Structure (SMILES) | degradation of BCR-ABL protein in vivo (BCR-ABL protein [2]) | degradation of other tyrosine kinase receptors [3] | tumor decrease ([4]; NOD-SCID mice, 15 mg/kg) | growth of K562 cell transplantation tumor ([4]; NOD-SCID mice, 5, 15, 45 mg/kg, 2 weeks) | degradation of c-ABL protein in vivo (c-ABL protein [5]) | IC50 (HEK293 (BCR-ABL-) cells) | BCR-ABL signal pathway activity in vivo (BCR-ABL signal pathway) | bodyweight of mice [6] | toxic and side effects [6] | degradation of BCR-ABL mutants related to clinical drug resistance [7]
1 | 10 to 100 nM | 12.2 nM | > 10000 nM | 10 to 100 nM | Cc1nc(Nc2ncc(C(=O)Nc3c(C)cccc3Cl)s2)cc(N2CCN(C(=O)CC(=O)Nc3cccc4c3CN(C3CCC(=O)NC3=O)C4=O)CC2)n1 (centres unmarked) [SIAIS164108, N-(2-chloro-6-methylphenyl)-2-((6-(4-(3-((2-(2,6-dioxopiperidin-3-yl)-1-oxoisoindolin-4-yl)amino)-3-oxopropanoyl)piperazin-1-yl)-2-methylpyrimidin-4-yl)amino)thiazole-5-carboxamide] | – | – | – | – | – | > 10000 nM | – | – | – | –
2 | 10 to 100 nM | 2.57 nM | > 10000 nM | 10 to 100 nM | Cc1nc(Nc2ncc(C(=O)Nc3c(C)cccc3Cl)s2)cc(N2CCN(C(=O)CCCCCOCCOCCOCCCCCC(=O)Nc3cccc4c3C(=O)N(C3CCC(=O)NC3=O)C4=O)CC2)n1 (centres unmarked) [SIAIS171114, N-(2-chloro-6-methylphenyl)-2-((6-(4-(6-(2-(2-((6-((2-(2,6-dioxopiperidin-3-yl)-1,3-dioxoisoindolin-4-yl)amino)-6-oxohexyl)oxy)ethoxy)ethoxy)hexanoyl)piperazin-1-yl)-2-methylpyrimidin-4-yl)amino)thiazole-5-carboxamide] | – | – | – | – | – | > 10000 nM | – | – | – | –
3 | 1 to 10 nM | 1.47 nM | > 10000 nM | 1 to 10 nM | Cc1nc(Nc2ncc(C(=O)Nc3c(C)cccc3Cl)s2)cc(N2CCN(C(=O)CCCCCCNc3cccc4c3C(=O)N(C3CCC(=O)NC3=O)C4=O)CC2)n1 (centres unmarked) [SIAIS151181, N-(2-chloro-6-methylphenyl)-2-((6-(4-(7-((2-(2,6-dioxopiperidin-3-yl)-1,3-dioxoisoindolin-4-yl)amino)heptanoyl)piperazin-1-yl)-2-methylpyrimidin-4-yl)amino)thiazole-5-carboxamide] | – | – | – | – | – | > 10000 nM | – | – | – | –

Row | Structure (SMILES) | DC50 (BCR-ABL protein [1]) | IC50 (K562 (BCR-ABL+) cells) | IC50 (U937 (BCR-ABL-) cells) | DC50 (c-ABL protein [8]) | degradation of BCR-ABL protein in vivo (BCR-ABL protein [2]) | degradation of other tyrosine kinase receptors [3] | tumor decrease ([4]; NOD-SCID mice, 15 mg/kg) | growth of K562 cell transplantation tumor ([4]; NOD-SCID mice, 5, 15, 45 mg/kg, 2 weeks) | degradation of c-ABL protein in vivo (c-ABL protein [5]) | IC50 (HEK293 (BCR-ABL-) cells) | BCR-ABL signal pathway activity in vivo (BCR-ABL signal pathway) | bodyweight of mice [6] | toxic and side effects [6] | degradation of BCR-ABL mutants related to clinical drug resistance [7]
4 | Cc1nc(Nc2ncc(C(=O)Nc3c(C)cccc3Cl)s2)cc(N2CCN(C(=O)CCCCCCC(=O)N[C@H](C(=O)N3C[C@H](O)C[C@H]3C(=O)NCc3ccc(-c4scnc4C)cc3)C(C)(C)C)CC2)n1 [SIAIS151178, N-(2-chloro-6-methylphenyl)-2-((6-(4-(8-(((S)-1-((2S,4R)-4-hydroxy-2-((4-(4-methylthiazol-5-yl)benzyl)carbamoyl)pyrrolidin-1-yl)-3,3-dimethyl-1-oxobutan-2-yl)amino)-8-oxooctanoyl)piperazin-1-yl)-2-methylpyrimidin-4-yl)amino)thiazole-5-carboxamide] | 1 to 10 nM | 41.3 nM | > 10000 nM | 10 to 100 nM | can also degrade BCR-ABL and c-ABL protein in a dose-dependent manner in vivo | can also degrade other tyrosine kinase receptors, such as Src protein kinase, kit, PDGFR | can cause tumor decrease | can inhibit the growth of K562 cell transplantation tumor in a dose-dependent manner | can also degrade BCR-ABL and c-ABL protein in a dose-dependent manner in vivo | > 10000 nM | significantly inhibit the BCR-ABL signal pathway activity | no significant effect on the bodyweight of mice | no obvious toxic and side effects were found | can significantly degrade the mutant forms of BCR-ABL-G250E/V299L/F317L/F317V in a dose-dependent manner
